Assay results from ChEMBL document CHEMBL1201862, “PubChem BioAssay data set” (2004).
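Interpolation was linear, between the two tested concentrations surrounding the appropriate level; five concentrations were tested over 48 hours in 96-well plates. Abbreviation: GI50, concentration required for 50% inhibition of growth.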 The source made the active and inactive calls. No stated cut-off is given here; in the data, active = GI50 up to about 1.1 µM and inactive = higher.

How the values were obtained:
Assay in all cases: NCI tumour cell line growth inhibition, 48 h
786-0 = tested on: 786-0
A498 = tested on: A498
A549 = tested on: A549
ACHN = tested on: ACHN
CAKI-1 = tested on: CAKI-1
CCRF-CEM = tested on: CCRF-CEM
COLO 205 = tested on: COLO 205
DLD-1 = tested on: DLD-1
DMS-114 = tested on: DMS-114
DMS-273 = tested on: DMS-273
EKVX = tested on: EKVX
HCC 2998 = tested on: HCC 2998
HCT-15 = tested on: HCT-15
HL-60 = tested on: HL-60
HOP-18 = tested on: HOP-18
HOP-62 = tested on: HOP-62
HOP-92 = tested on: HOP-92
HT-29 = tested on: HT-29
IGROV-1 = tested on: IGROV-1
K562 = tested on: K562
KM-20L2 = tested on: KM-20L2
KM12 = tested on: KM12
LOX IMVI = tested on: LOX IMVI
LXFL 529 = tested on: LXFL 529
M14 = tested on: M14
M19-MEL = tested on: M19-MEL
MOLT-4 = tested on: MOLT-4
Malme-3M = tested on: Malme-3M
NCI-H23 = tested on: NCI-H23
NCI-H460 = tested on: NCI-H460
NCI-H522 = tested on: NCI-H522
OVCAR-3 = tested on: OVCAR-3
OVCAR-4 = tested on: OVCAR-4
OVCAR-5 = tested on: OVCAR-5
OVCAR-8 = tested on: OVCAR-8
RPMI-8226 = tested on: RPMI-8226
RXF 393 = tested on: RXF 393
SF-268 = tested on: SF-268
SF-295 = tested on: SF-295
SF-539 = tested on: SF-539
SK-MEL-28 = tested on: SK-MEL-28
SK-MEL-2 = tested on: SK-MEL-2
SK-MEL-5 = tested on: SK-MEL-5
SK-OV-3 = tested on: SK-OV-3
SN12C = tested on: SN12C
SNB-19 = tested on: SNB-19
SNB-75 = tested on: SNB-75
SW-620 = tested on: SW-620
TK-10 = tested on: TK-10
U-251 = tested on: U-251
UACC-257 = tested on: UACC-257
UACC-62 = tested on: UACC-62
UO-31 = tested on: UO-31
HCT-116 = tested on: HCT-116
NCI-H226 = tested on: NCI-H226
SR = tested on: SR

Q: Which results are given for `C=CC1=CSNN1`?
A: GI50 (786-0): > 100 µM (inactive); GI50 (A498): > 100 µM (inactive); GI50 (A549): > 100 µM (inactive); GI50 (ACHN): > 100 µM (inactive); GI50 (CAKI-1): > 100 µM (inactive); GI50 (CCRF-CEM): > 100 µM (inactive); GI50 (COLO 205): > 100 µM (inactive); GI50 (DLD-1): > 100 µM (inactive); GI50 (DMS-114): > 100 µM (inactive); GI50 (DMS-273): > 100 µM (inactive); GI50 (EKVX): > 100 µM (inactive); GI50 (HCC 2998): > 100 µM (inactive); GI50 (HCT-15): > 100 µM; GI50 (HL-60): > 100 µM (inactive); GI50 (HOP-18): > 100 µM (inactive); GI50 (HOP-62): > 100 µM (inactive); GI50 (HOP-92): > 100 µM (inactive); GI50 (HT-29): > 100 µM (inactive); GI50 (IGROV-1): > 100 µM (inactive); GI50 (K562): > 100 µM (inactive); GI50 (KM-20L2): > 100 µM (inactive); GI50 (KM12): > 100 µM (inactive); GI50 (LOX IMVI): > 100 µM (inactive); GI50 (LXFL 529): > 100 µM (inactive); GI50 (M14): > 100 µM (inactive); GI50 (M19-MEL): > 100 µM (inactive); GI50 (MOLT-4): > 100 µM (inactive); GI50 (Malme-3M): > 100 µM (inactive); GI50 (NCI-H23): > 100 µM (inactive); GI50 (NCI-H460): > 100 µM (inactive); GI50 (NCI-H522): > 100 µM (inactive); GI50 (OVCAR-3): > 100 µM (inactive); GI50 (OVCAR-4): > 100 µM (inactive); GI50 (OVCAR-5): > 100 µM (inactive); GI50 (OVCAR-8): > 100 µM (inactive); GI50 (RPMI-8226): > 100 µM (inactive); GI50 (RXF 393): > 100 µM (inactive); GI50 (SF-268): > 100 µM (inactive); GI50 (SF-295): > 100 µM (inactive); GI50 (SF-539): > 100 µM (inactive); GI50 (SK-MEL-28): > 100 µM (inactive); GI50 (SK-MEL-2): > 100 µM (inactive); GI50 (SK-MEL-5): > 100 µM (inactive); GI50 (SK-OV-3): > 100 µM (inactive); GI50 (SN12C): > 100 µM (inactive); GI50 (SNB-19): > 100 µM (inactive); GI50 (SNB-75): > 100 µM (inactive); GI50 (SW-620): > 100 µM (inactive); GI50 (TK-10): > 100 µM (inactive); GI50 (U-251): > 100 µM (inactive); GI50 (UACC-257): > 100 µM (inactive); GI50 (UACC-62): > 100 µM (inactive); GI50 (UO-31): > 100 µM (inactive)

Q: For `CCNC1=Nc2ccccc2-n2c(nn3nc4ccccc4c23)N1CC`, which GI50 (786-0) is on record?
A: The GI50 was > 100 µM (inactive).

Q: What about the GI50 (A498) of the same molecule?
A: Its GI50 is > 100 µM (inactive).

Q: And the GI50 (A549)?
A: Its GI50 is > 100 µM (inactive).

Q: What about the GI50 (ACHN) of the same molecule?
A: Its GI50 is > 100 µM (inactive).

Q: And the GI50 (CCRF-CEM)?
A: Its GI50 is 80 µM (inactive).

Q: And the GI50 (COLO 205)?
A: The GI50 was > 100 µM (inactive).

Q: And the GI50 (DLD-1)?
A: Its GI50 is > 100 µM (inactive).

Q: What about the GI50 (DMS-114) of the same molecule?
A: Its GI50 is 89.3 µM (inactive).

Q: What about the GI50 (DMS-273) of the same molecule?
A: Its GI50 is > 100 µM (inactive).

Q: And the GI50 (EKVX)?
A: The GI50 was > 100 µM (inactive).

Q: What about the GI50 (HCT-116) of the same molecule?
A: The GI50 was > 100 µM (inactive).

Q: What about the GI50 (HCT-15) of the same molecule?
A: Its GI50 is > 100 µM.

Q: And the GI50 (HL-60)?
A: The GI50 was 36.6 µM (inactive).

Q: And the GI50 (HOP-18)?
A: Its GI50 is > 100 µM (inactive).

Q: And the GI50 (HOP-62)?
A: Its GI50 is > 100 µM (inactive).

Q: What about the GI50 (HOP-92) of the same molecule?
A: The GI50 was > 100 µM (inactive).

Q: What about the GI50 (HT-29) of the same molecule?
A: The GI50 was 82.6 µM (inactive).

Q: And the GI50 (IGROV-1)?
A: The GI50 was > 100 µM (inactive).

Q: And the GI50 (K562)?
A: Its GI50 is 66.7 µM (inactive).

Q: What about the GI50 (KM-20L2) of the same molecule?
A: Its GI50 is > 100 µM (inactive).

Q: What about the GI50 (KM12) of the same molecule?
A: The GI50 was 29.6 µM (inactive).

Q: And the GI50 (LOX IMVI)?
A: The GI50 was > 100 µM (inactive).

Q: And the GI50 (LXFL 529)?
A: Its GI50 is > 100 µM (inactive).

Q: And the GI50 (M14)?
A: The GI50 was > 100 µM (inactive).

Q: And the GI50 (M19-MEL)?
A: Its GI50 is > 100 µM (inactive).

Q: And the GI50 (MOLT-4)?
A: Its GI50 is 30.2 µM (inactive).

Q: And the GI50 (NCI-H226)?
A: Its GI50 is > 100 µM (inactive).

Q: And the GI50 (NCI-H23)?
A: Its GI50 is > 100 µM (inactive).

Q: What about the GI50 (NCI-H460) of the same molecule?
A: The GI50 was > 100 µM (inactive).

Q: What about the GI50 (NCI-H522) of the same molecule?
A: The GI50 was 72.4 µM (inactive).

Q: What about the GI50 (OVCAR-4) of the same molecule?
A: Its GI50 is > 100 µM (inactive).

Q: And the GI50 (OVCAR-5)?
A: The GI50 was > 100 µM (inactive).

Q: And the GI50 (OVCAR-8)?
A: Its GI50 is > 100 µM (inactive).

Q: What about the GI50 (RPMI-8226) of the same molecule?
A: Its GI50 is 97.1 µM (inactive).

Q: And the GI50 (RXF 393)?
A: The GI50 was > 100 µM (inactive).

Q: What about the GI50 (SF-268) of the same molecule?
A: Its GI50 is > 100 µM (inactive).

Q: What about the GI50 (SF-295) of the same molecule?
A: The GI50 was 37.3 µM (inactive).

Q: And the GI50 (SF-539)?
A: The GI50 was > 100 µM (inactive).

Q: And the GI50 (SK-MEL-28)?
A: Its GI50 is 94.2 µM (inactive).

Q: And the GI50 (SK-MEL-5)?
A: Its GI50 is > 100 µM (inactive).

Q: And the GI50 (SN12C)?
A: Its GI50 is 77.4 µM (inactive).

Q: What about the GI50 (SNB-19) of the same molecule?
A: The GI50 was > 100 µM (inactive).

Q: And the GI50 (SNB-75)?
A: Its GI50 is > 100 µM (inactive).

Q: And the GI50 (SR)?
A: The GI50 was 34.8 µM (inactive).

Q: And the GI50 (SW-620)?
A: Its GI50 is > 100 µM (inactive).

Q: What about the GI50 (U-251) of the same molecule?
A: The GI50 was > 100 µM (inactive).

Q: And the GI50 (UACC-257)?
A: The GI50 was > 100 µM (inactive).

Q: What about the GI50 (UACC-62) of the same molecule?
A: The GI50 was > 100 µM (inactive).
